Test results reported in patent US4201784A, “Substituted 2-[2'-(5"-nitrofuryl-2")vinyl-and 4'-(5"-nitrofuryl-2"-1,3-butadieryl]quinoline-4-carboxylic acid amides and salts thereof” (Institut Organicheskogo Sinteza Akademii Nauk Latviiskoi SSR, priority 1977, dated 1980).
Like-named read-outs stand apart in the source and are kept apart here.

Columns and labels:
[1] = system: wound healing processes; assay: Influence on wound healing processes
[2] = LD50 / toxicity, mice with 7-days Ehrlich ascitic tumor; type: in vivo; details: for LD50: mouse, in vivo
Text: It should be noted that with a single intraperitoneal injection of the
With peroral administration, toxicity of giniquine is 4-5 times lower.

[3] = system: Mucous membrane of small intestine; assay: In vivo biosynthesis of DNA, RNA and protein in mucous membrane of small intestine; parameters: species or system mice; details: 24 hours, intraperitoneal 28 mg/kg
Method: The influence of giniquine on biosynthetic processes in the in vivo tests was studied on common white mice of a mass of 25-35 g with Ehrlich ascitic tumor.
The mice were divided into two groups. The animals in the first group were given a single injection of the preparation in differing doses, and the animals in the second group were treated with distilled water. Three series of experiments were conducted. In the first series of tests (16 mice) the preparation was injected in a dose of 100 mg/kg ([…] dose), and the animals were decapitated one hour after the injection; in the second test series (16 mice) the animals were slaughtered 3 hours after the injection with other conditions being the same. In the third test series (35 mice) the influence of giniquine on plastic metabolism in tumor cells and normal tissues was studied 24 hours after the injection of a 0.33% solution of the preparation in a dose of 28 mg/kg (therapeutical dose).
Labeled precursors of nucleic acids and protein were injected intraperitoneally one hour before the slaughter of the animals (50 μc/100 g). Ascitic fluid, as well as liver and spleen, mucous membrane of small intestine, brain, kidneys and lungs were taken for analysis. 10% suspension was prepared from tumor cells, and 10% homogenates were prepared from tissues in a physiological solution.
Tumor cells and tissue homogenates for precipitation of nucleic acids were treated with 57% perchloric acid (10:1). […] Radioactivity of DNA and RNA fractions was measured by means of a liquid scintillation counter. The quantity of DNA and RNA was determined by spectrophotometry: the quantity of DNA was determined with diphenylamine, and RNA- with orcin.
To prepare protein hydrolysate, the suspension of tumoral cells and homogenates of normal tissues were treated with cool 10% trichloracetic acid (1:4), with subsequent centrifuging at 2000 g for ten minutes. […] The radioactivity was measured by means of a liquid scintillation counter. Protein was quantitatively determined by spectrophotometry using a microbiuret reaction.

[4] = system: cells of Ehrlich ascitic tumor; assay: In vitro incorporation of labeled precursors into DNA, RNA and protein of Ehrlich ascitic tumor cells; type: cell-based, mice; details: for activity at 100 µM: 1 h, 1.10^-4 M
Method: The effect of giniquine on biosynthesis of molecules in the in vitro tests was studied with suspensions of cells of Ehrlich ascitic tumor. The tests were conducted with common white mice of a mass of 18-20 g. Ascites was taken 7-8 days after the inoculation, dissolved with a cool Eagle medium (pH 7.4) containing 0.1% of heparin, and the cells were precipitated by centrifuging at 600 g. The cells were washed twice with the same medium, and a 10% suspension of the cells in the Eagle medium was prepared.
The effect of giniquine on biosynthesis of DNA, RNA and protein in the cells of Ehrlich ascitic tumor was assessed on the basis of incorporation of cells of specific labeled precursors into acid-insoluble fraction: 2-^14 C-thymidine, 2-^14 C-uridine and 2-^14 C-leucine, respectively.
The incubating medium contained, in a total volume of 2 ml, 100 mg of tumoral cells in the form of suspension, Eagle medium (pH 7.4), giniquine in a concentration of 1.10^-4 m and labeled precursors of nucleic acids and protein with a radioactivity corresponding to 0.1 μc. Control samples contained a corresponding volume of distilled water to replace the preparation solution.
The incubation was conducted in Warburg apparatus vessels at 37° C. for one hour. After the incubation, tumoral cells were fixed by adding cool 10% trichloracetic acid to the incubating medium (1:1). Concurrently a control sample without incubation was prepared, to which, before adding the cell suspension, was added 10% trichloracetic acid in the same ratio.
The precipitated cells were extracted for 20 minutes at 0° C. with 5% trichloroacetic acid. The samples were then filtered through millipore filters (HUFS, pore diameter 0.4 μ). The precipitate on the filter was washed twice with 5 ml of cool 5% trichloracetic acid and once with 5 ml of toluene. The filters were dried in the air and transferred into quartz flasks containing 10 ml of toluene scintillator. The radioactivity was determined by means of a liquid scintillation counter. The results were expressed in percent of the control.
It will be apparent from the Table that under the action of giniquine in a concentration of 1.10^-4 M the incorporation of labeled precursors of DNA, RNA and protein in acid-insoluble fraction of cells of Ehrlich ascitic tumor is disturbed compared to the control. […] The results of in vitro experiments study of the effect of 0.3 and 0.1% solutions of giniquine on the incorporation of 2-^14 C-thymidine in the acid-insoluble fraction (DNA) of Erlich cells are presented in Table 6.

[5] = system: Ehrlich ascitic tumor; assay: Antitumor activity, life prolongation of mice with Ehrlich ascitic tumor; type: in vivo
Method: The experiment was conducted as follows. 10^6 cells of Erlich tumuor were injected in common white mice intraperitoneally, the dose being given per each animal. […] Each dose of the preparation was tested in six mice. The control group included 18 mice. Giniquine solution was prepared by dissolving the substance ex tempore in distilled water or in a buffer. The effect of the preparation is shown on charts 1,2,3.

## CCN(CC)CCCC(C)NC(=O)c1cc(C=Cc2ccc([N+](=O)[O-])o2)nc2ccccc12 (stereo not drawn) [giniquine, 2-[2'-(5"-nitrofuryl-2")vinyl]quinoline-4-carboxylic acid (α-methyl-δ-diethylaminobutyl)amide triphosphate]
[1]
  inhibiting influence on wound healing processes: absence of an inhibiting influences on wound healing processes
[2]; Table 4
  dependence of mice sensitivity on sex: does not depend on the sex of test mice
[2]; ip, intraperitoneal, single injection, female
  LD50: 99 mg/kg
[2]; po, peroral, single administration, female
  LD50: 360 mg/kg
[2]; po, peroral, single administration, male
  LD50: 500 mg/kg
[2]; peroral administration
  toxicity, times lower: 4-5 times lower
[2]; single intraperitoneal injection, 7 days after implantation of Ehrlich ascitic tumor
  toxicity, relative: three times lower
[3]
  Incorporation of specific precursors, DNA: 386.0 % of control
  Incorporation of specific precursors, Protein: 122.0 % of control
  Incorporation of specific precursors, RNA: 158.0 % of control
[4]; 0.1% solution
  Incorporation of 2-^14 C-thymidine in DNA in % of control: 2.4 % of control
[4]; 0.3% solution
  suppression of biosynthesis of DNA in tumor cells (in words): practically complete suppression
[4]; Mus musculus, Ehrlich, read-out: Incorporation of 2-^14 C-leucine in percent of control
  activity at 100 µM: 86%
[4]; Mus musculus, Ehrlich, read-out: Incorporation of 2-^14 C-thymidine in percent of control
  activity at 100 µM: 61%
[4]; Mus musculus, Ehrlich, read-out: Incorporation of 2-^14 C-uridine in percent of control
  activity at 100 µM: 52%
[4]; Mus musculus, Ehrlich, 0.1% solution, read-out: Incorporation of 2-^14 C-thymidine in DNA in % of control
  activity at 0.1 %: 2.4%
[4]; Mus musculus, Ehrlich, 0.3% solution, read-out: Incorporation of 2-^14 C-thymidine in DNA in % of control
  activity at 0.3 %: 0.7%
[4]; in vitro
  incorporation of labeled precursors in DNA, RNA and protein (in words): decelerates the incorporation of labeled precursors in DNA, RNA and protein
[5]; 0.1 to 0.35% solution
  dependence of antitumoral effect on solution concentration: did not change within this range of concentrations
[5]; Chart 1, intraperitoneal injection
  prolongation of life: 100%
[5]; Chart 1, intravenous injection
  prolongation of life: 25%
[5]; Chart 2, single intraperitoneal injection on first day vs five injections at 1,2,3,4,7 days
  antitumor effect, single versus five injections: the same
[5]; Chart 3, intraperitoneal injection on 7th day
  prolongation of life: 100%
[5]; Chart 3, intraperitoneal injection on 14th day
  prolongation of life: 55%
[5]; Chart 3, intraperitoneal injection on first day after implantation
  prolongation of life: 90%
[5]; Chart 3, intraperitoneal injection on third day
  prolongation of life: 80%
